# Measurements: paper PMC8286840, “Identifying SARS-CoV-2 antiviral compounds by screening for small molecule inhibitors of Nsp3 papain-like protease” (Biochemical Journal, 2021)
# Counter-ions that a name gives are not always drawn. Like-named read-outs stand apart in the source and are kept apart here.
# Key:
# [1] = biological target: T1, SARS-CoV-2 PLpro (nsp3 1564–1878) (Severe acute respiratory syndrome coronavirus 2, UniProt P0DTD1); assay: biochemical; parameters: FRET-quenched peptide (Pro3) cleavage by PLpro, 10 min pre-incubation, slope over 20 min, normalised to no-compound control; settings: low concentration screen, read-out: % of control remaining
# [2] = biological target: T1, SARS-CoV-2 PLpro (nsp3 1564–1878); assay: biochemical; parameters: FRET-quenched peptide (Pro3) cleavage by PLpro, 10 min pre-incubation, slope over 20 min, normalised to no-compound control; settings: high concentration screen, read-out: % of control remaining
compound,measurement,setting,value
COC1=CC(=O)O[C@@H](CCc2ccc3c(c2)OCO3)C1 [Dihydromethysticin],remaining activity at 1.25 µM,[1]; Well no.=3303,100%
same,remaining activity at 3.75 µM,[2]; Well no.=3303,102%
C[C@@H]1O[C@@H](O[C@H]2C[C@@H](O)[C@]3(CO)[C@H]4[C@H](O)C[C@]5(C)[C@@H](C6COC(=O)C6)CC[C@]5(O)[C@@H]4CC[C@]3(O)C2)[C@H](O)[C@H](O)[C@H]1O (some centres unmarked) [Dihydroouabain],remaining activity at 1.25 µM,[1]; Well no.=539,91.5%
same,remaining activity at 3.75 µM,[2]; Well no.=539,93.8%
CCCCCCCCCCCCCCC[C@@H](O)[C@@H](N)CO [Dihydrosphingosine],remaining activity at 1.25 µM,[1]; Well no.=4399,101%
same,remaining activity at 3.75 µM,[2]; Well no.=4399,96.6%
CC1CNC(=O)NC1=O (centres unmarked) [Dihydrothymine],remaining activity at 1.25 µM,[1]; Well no.=8392,100%
same,remaining activity at 3.75 µM,[2]; Well no.=8392,92.8%
c1ccc2c(Cc3c[nH]c4ccccc34)c[nH]c2c1 [Diindolylmethane],remaining activity at 1.25 µM,[1]; Well no.=3516,102%
same,remaining activity at 1.25 µM,[1]; Well no.=4509,88.9%
same,remaining activity at 3.75 µM,[2]; Well no.=3516,104%
same,remaining activity at 3.75 µM,[2]; Well no.=4509,92.4%
COc1cc(C(=O)OCCCN2CCCN(CCCOC(=O)c3cc(OC)c(OC)c(OC)c3)CC2)cc(OC)c1OC [Dilazep hydrochloride],remaining activity at 1.25 µM,[1]; Well no.=595,103%
same,remaining activity at 3.75 µM,[2]; Well no.=595,106%
COc1cc(C(=O)OCCCN2CCCN(CCCOC(=O)c3cc(OC)c(OC)c(OC)c3)CC2)cc(OC)c1OC [Dilazep],remaining activity at 1.25 µM,[1]; Well no.=1931,100%
same,remaining activity at 3.75 µM,[2]; Well no.=1931,99.9%
COc1ccc([C@@H]2Sc3ccccc3N(CCN(C)C)C(=O)[C@@H]2OC(C)=O)cc1 [Diltiazem],remaining activity at 1.25 µM,[1]; Well no.=1713,104%
same,remaining activity at 3.75 µM,[2]; Well no.=1713,102%
Cc1ccc2c(c1)[C@]13CCCC[C@@H]1[C@H](C2)N(C)CC3 [Dimemorfan (phosphate)],remaining activity at 1.25 µM,[1]; Well no.=8523,106%
same,remaining activity at 3.75 µM,[2]; Well no.=8523,103%
O=S(=O)(O)CCSSCCS(=O)(=O)O [Dimesna],remaining activity at 1.25 µM,[1]; Well no.=5105,104%
same,remaining activity at 3.75 µM,[2]; Well no.=5105,105%
COC(=O)/C=C/C(=O)OC [Dimethyl Fumarate],remaining activity at 1.25 µM,[1]; Well no.=5294,93.6%
same,remaining activity at 3.75 µM,[2]; Well no.=5294,94.2%
CCc1cnn2c(NCc3ccc[n+]([O-])c3)cc(N3CCCC[C@H]3CCO)nc12 [Dinaciclib (SCH727965)],remaining activity at 1.25 µM,[1]; Well no.=5081,99.7%
same,remaining activity at 3.75 µM,[2]; Well no.=5081,105%
CCCCC[C@H](O)/C=C/[C@@H]1[C@@H](C/C=C\CCCC(=O)O)[C@@H](O)C[C@H]1O [Dinoprost (tromethamine salt)],remaining activity at 1.25 µM,[1]; Well no.=6475,104%
same,remaining activity at 3.75 µM,[2]; Well no.=6475,105%
CCCCC[C@H](O)/C=C/[C@@H]1[C@@H](C/C=C\CCCC(=O)O)[C@@H](O)C[C@H]1O [Dinoprost],remaining activity at 1.25 µM,[1]; Well no.=1667,99.9%
same,remaining activity at 3.75 µM,[2]; Well no.=1667,101%
C[C@@H]1CC[C@@]2(OC1)O[C@H]1C[C@H]3[C@@H]4CC=C5C[C@@H](O)CC[C@]5(C)[C@H]4CC[C@]3(C)[C@H]1[C@@H]2C [Diosgenin],remaining activity at 1.25 µM,[1]; Well no.=5192,96.6%
same,remaining activity at 3.75 µM,[2]; Well no.=5192,94.9%
COc1ccc(-c2cc(=O)c3c(O)cc(O)cc3o2)cc1O [Diosmetine],remaining activity at 1.25 µM,[1]; Well no.=3573,97.4%
same,remaining activity at 3.75 µM,[2]; Well no.=3573,97.7%
COc1ccc(-c2cc(=O)c3c(O)cc(O[C@@H]4O[C@H](CO[C@@H]5O[C@@H](C)[C@H](O)[C@@H](O)[C@H]5O)[C@@H](O)[C@H](O)[C@H]4O)cc3o2)cc1O [Diosmin],remaining activity at 1.25 µM,[1]; Well no.=3597,95.3%
same,remaining activity at 3.75 µM,[2]; Well no.=3597,97.4%
C[N+]1(C)CCC(=C(c2ccccc2)c2ccccc2)CC1 [Diphemanil Methylsulfate],remaining activity at 1.25 µM,[1]; Well no.=5118,109%
same,remaining activity at 3.75 µM,[2]; Well no.=5118,108%
OC(CCCN1CCCCC1)(c1ccccc1)c1ccccc1 [Diphenidol (hydrochloride)],remaining activity at 1.25 µM,[1]; Well no.=7621,102%
same,remaining activity at 3.75 µM,[2]; Well no.=7621,102%
Cc1cc(-c2ccc(N=Nc3c(S(=O)(=O)O)cc4cc(S(=O)(=O)O)cc(N)c4c3O)c(C)c2)ccc1N=Nc1c(S(=O)(=O)O)cc2cc(S(=O)(=O)O)cc(N)c2c1O [Diphenyl Blue],remaining activity at 1.25 µM,[1]; Well no.=7598,89.8%
same,remaining activity at 3.75 µM,[2]; Well no.=7598,89.2%
c1ccc2c(c1)[I+]c1ccccc1-2 [Diphenyleneiodonium chloride],remaining activity at 1.25 µM,[1]; Well no.=591,99.6%
same,remaining activity at 3.75 µM,[2]; Well no.=591,105%
CN1CCC(OC(c2ccccc2)c2ccccc2)CC1 [Diphenylpyraline (hydrochloride)],remaining activity at 1.25 µM,[1]; Well no.=6853,100%
same,remaining activity at 3.75 µM,[2]; Well no.=6853,102%
Cn1c(=O)c2c(ncn2CC(O)CO)n(C)c1=O (centres unmarked) [Diphylline],remaining activity at 1.25 µM,[1]; Well no.=7387,106%
same,remaining activity at 1.25 µM,[1]; Well no.=8273,101%
same,remaining activity at 3.75 µM,[2]; Well no.=7387,105%
same,remaining activity at 3.75 µM,[2]; Well no.=8273,98.7%
CCCN(CCC)CCc1ccc(O)c(O)c1 [Dipropyldopamine hydrobromide],remaining activity at 1.25 µM,[1]; Well no.=684,98.3%
same,remaining activity at 3.75 µM,[2]; Well no.=684,98.3%
CC[C@H](C)[C@H](N)C(=O)N1CCC[C@H]1C(=O)N[C@H](C(=O)O)[C@@H](C)CC [Diprotin A (TFA)],remaining activity at 1.25 µM,[1]; Well no.=8464,104%
same,remaining activity at 3.75 µM,[2]; Well no.=8464,101%
CC(C)=CCC[C@](C)(O)[C@H]1CC[C@]2(C)[C@@H]1CC[C@@H]1[C@@]3(C)CCC(=O)C(C)(C)[C@@H]3CC[C@]12C [Dipterocarpol],remaining activity at 1.25 µM,[1]; Well no.=3204,105%
same,remaining activity at 3.75 µM,[2]; Well no.=3204,106%
OCCN(CCO)c1nc(N2CCCCC2)c2nc(N(CCO)CCO)nc(N3CCCCC3)c2n1 [Dipyridamole],remaining activity at 1.25 µM,[1]; Well no.=682,103%
same,remaining activity at 1.25 µM,[1]; Well no.=1863,95.1%
same,remaining activity at 3.75 µM,[2]; Well no.=682,100%
same,remaining activity at 3.75 µM,[2]; Well no.=1863,94.7%
O=c1ccn([C@@H]2O[C@H](COP(=O)(O)OP(=O)(O)OP(=O)(O)OP(=O)(O)OC[C@H]3O[C@@H](n4ccc(=O)[nH]c4=O)[C@H](O)[C@@H]3O)[C@@H](O)[C@H]2O)c(=O)[nH]1 [Diquafosol (tetrasodium)],remaining activity at 1.25 µM,[1]; Well no.=8837,101%
same,remaining activity at 3.75 µM,[2]; Well no.=8095,100%
same,remaining activity at 3.75 µM,[2]; Well no.=8837,87.9%
O=C(O)c1cc(=O)c2c(OCC(O)COc3cccc4oc(C(=O)O)cc(=O)c34)cccc2o1 [Disodium Cromoglycate],remaining activity at 1.25 µM,[1]; Well no.=1857,102%
same,remaining activity at 3.75 µM,[2]; Well no.=1857,100%
CC(C)N(CCC(C(N)=O)(c1ccccc1)c1ccccn1)C(C)C (centres unmarked) [Disopyramide phosphate salt],remaining activity at 1.25 µM,[1]; Well no.=5508,105%
same,remaining activity at 3.75 µM,[2]; Well no.=5508,103%
CC(C)N(CCC(C(N)=O)(c1ccccc1)c1ccccn1)C(C)C (centres unmarked) [Disopyramide phosphate],remaining activity at 1.25 µM,[1]; Well no.=436,97.6%
same,remaining activity at 3.75 µM,[2]; Well no.=436,98.8%
CC(C)N(CCC(C(N)=O)(c1ccccc1)c1ccccn1)C(C)C (centres unmarked) [Disopyramide],remaining activity at 1.25 µM,[1]; Well no.=390,101%
same,remaining activity at 3.75 µM,[2]; Well no.=390,101%
